Measured values taken from ChEMBL document CHEMBL1129544, “A structure-activity relationship study of novel phenylacetamides which are sodium channel blockers” (J Med Chem, 1996).

target: Sodium channel protein type 2 subunit alpha (Rattus norvegicus, UniProt P04775); experiment: Inhibitory activity against type IIA sodium channel in CNaIIA-1 cell line expressed in CHO cells; type: cell-based
Sequence (P04775 whole entry): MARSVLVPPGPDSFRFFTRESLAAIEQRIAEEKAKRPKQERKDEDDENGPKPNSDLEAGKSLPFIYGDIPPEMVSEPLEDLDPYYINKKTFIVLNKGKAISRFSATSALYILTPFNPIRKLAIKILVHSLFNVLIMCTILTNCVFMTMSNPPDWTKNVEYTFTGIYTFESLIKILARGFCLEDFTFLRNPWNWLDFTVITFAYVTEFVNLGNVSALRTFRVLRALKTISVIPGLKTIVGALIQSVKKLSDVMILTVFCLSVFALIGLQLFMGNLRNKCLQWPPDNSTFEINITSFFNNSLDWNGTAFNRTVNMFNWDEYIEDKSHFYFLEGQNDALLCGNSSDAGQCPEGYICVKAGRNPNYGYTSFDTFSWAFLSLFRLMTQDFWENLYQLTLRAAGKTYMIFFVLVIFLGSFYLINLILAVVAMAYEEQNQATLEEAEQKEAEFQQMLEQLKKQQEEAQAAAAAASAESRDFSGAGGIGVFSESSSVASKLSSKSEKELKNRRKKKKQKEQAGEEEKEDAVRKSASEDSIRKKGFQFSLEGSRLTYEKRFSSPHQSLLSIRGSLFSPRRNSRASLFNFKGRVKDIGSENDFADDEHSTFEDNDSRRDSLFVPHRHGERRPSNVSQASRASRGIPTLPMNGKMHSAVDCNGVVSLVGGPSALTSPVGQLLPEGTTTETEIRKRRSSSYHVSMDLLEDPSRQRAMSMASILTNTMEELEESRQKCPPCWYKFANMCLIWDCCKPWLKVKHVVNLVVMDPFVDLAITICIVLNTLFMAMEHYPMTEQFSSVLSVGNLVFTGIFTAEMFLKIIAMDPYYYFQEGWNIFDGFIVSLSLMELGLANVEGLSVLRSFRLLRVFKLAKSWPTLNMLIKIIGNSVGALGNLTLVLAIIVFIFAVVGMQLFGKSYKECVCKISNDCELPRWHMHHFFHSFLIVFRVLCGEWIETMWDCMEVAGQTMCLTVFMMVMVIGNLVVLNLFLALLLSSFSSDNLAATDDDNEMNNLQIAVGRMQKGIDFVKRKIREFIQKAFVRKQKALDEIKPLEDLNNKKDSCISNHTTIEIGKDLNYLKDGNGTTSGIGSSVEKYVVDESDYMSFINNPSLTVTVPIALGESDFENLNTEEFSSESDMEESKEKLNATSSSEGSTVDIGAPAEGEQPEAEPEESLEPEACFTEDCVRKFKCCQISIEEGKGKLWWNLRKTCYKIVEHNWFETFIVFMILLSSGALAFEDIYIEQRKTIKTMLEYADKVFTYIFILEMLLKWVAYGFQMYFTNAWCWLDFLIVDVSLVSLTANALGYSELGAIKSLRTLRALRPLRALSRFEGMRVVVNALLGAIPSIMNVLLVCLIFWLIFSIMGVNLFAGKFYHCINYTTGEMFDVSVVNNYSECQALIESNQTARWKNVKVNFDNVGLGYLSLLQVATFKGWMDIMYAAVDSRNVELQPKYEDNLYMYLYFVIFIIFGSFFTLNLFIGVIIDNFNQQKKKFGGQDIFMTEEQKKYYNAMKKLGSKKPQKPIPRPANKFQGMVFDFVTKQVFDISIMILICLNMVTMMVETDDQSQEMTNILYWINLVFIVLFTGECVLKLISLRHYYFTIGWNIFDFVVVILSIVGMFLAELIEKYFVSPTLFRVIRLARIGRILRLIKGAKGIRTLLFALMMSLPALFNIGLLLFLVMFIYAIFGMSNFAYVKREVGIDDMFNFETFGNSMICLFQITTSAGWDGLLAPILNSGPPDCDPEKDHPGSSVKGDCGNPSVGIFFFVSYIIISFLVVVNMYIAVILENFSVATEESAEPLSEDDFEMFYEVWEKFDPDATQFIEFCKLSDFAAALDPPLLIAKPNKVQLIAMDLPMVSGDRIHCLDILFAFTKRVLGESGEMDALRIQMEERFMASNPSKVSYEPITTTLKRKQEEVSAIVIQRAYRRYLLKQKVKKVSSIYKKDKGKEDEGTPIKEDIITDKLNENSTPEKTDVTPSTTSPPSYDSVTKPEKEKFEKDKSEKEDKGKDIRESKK

| SMILES | IC50 [µM] |
| --- | --- |
| CN(C)CCCN(C)C(=O)C(c1ccccc1)c1ccccc1 | > 200 |
| O=C(NCCCN1CCOCC1)C(c1ccccc1)c1ccccc1 | 6.5 |
| O=C(NCCCN1CCC(Cc2ccccc2)CC1)C(c1ccccc1)c1ccccc1 | 0.6 |
| CN1CCN(CCCNC(=O)C(c2ccccc2)c2ccccc2)CC1 | > 200 |
| O=C(NCCCN1CCCCC1)C(c1ccccc1)c1ccccc1 | 5.3 |
| NCCCNC(=O)C(c1ccccc1)c1ccccc1 | 40 |
| O=C(NCCCN1CCC(n2c(=O)[nH]c3ccccc32)CC1)C(c1ccccc1)c1ccccc1 | 0.72 |
| O=C(NCCCN1CCN(Cc2ccccc2)CC1)C(c1ccccc1)c1ccccc1 | 0.7 |
| CC(CNC(=O)C(c1ccccc1)c1ccccc1)CN1CCC(c2ccccc2)CC1 (stereo not drawn) | 1.5 |
| O=C(NCCCN1CCC(c2ccccc2)CC1)C(c1ccccc1)c1ccccc1 | 1.1 |
| CN(CCCNC(=O)C(c1ccccc1)c1ccccc1)Cc1ccccc1 | 1.2 |
| CN(C)CCCNC(=O)C(c1ccccc1)c1ccccc1 | 20 |
| CC1CCC(C)N1CCCNC(=O)C(c1ccccc1)c1ccccc1 (stereo not drawn) | 4.6 |
| COc1ccccc1N1CCN(CCCNC(=O)C(c2ccccc2)c2ccccc2)CC1 | 1.2 |
| O=C(NCCCN1CCC(O)(c2ccccc2)CC1)C(c1ccccc1)c1ccccc1 | 2.2 |
| O=C(NCCCN1CCC(Oc2ccccc2)CC1)C(c1ccccc1)c1ccccc1 | 1.4 |
| O=C(NCCCCN1CCCCC1)C(c1ccccc1)c1ccccc1 | 10 |
| O=C(NCCN1CCCCC1)C(c1ccccc1)c1ccccc1 | 7.2 |
| CN1CCCC1CCNC(=O)C(c1ccccc1)c1ccccc1 (stereo not drawn) | 32 |
| CC1CN(CCCNC(=O)C(c2ccccc2)c2ccccc2)CC(C)O1 (stereo not drawn) | 2.7 |
| CCN(CC)CCCNC(=O)C(c1ccccc1)c1ccccc1 | 4.4 |
| O=C(NC1CN2CCC1CC2)C(c1ccccc1)c1ccccc1 (stereo not drawn) | 95 |
| O=c1[nH]c2ccccc2n1C1CCN(CCCC(c2ccc(F)cc2)c2ccc(F)cc2)CC1 [PIMOZIDE] | 0.34 |
